Test results from PubChem BioAssay AID1963832 (Molecular Pharmacology Branch, DTP, NCI, 2024).

Test system: 885724-159-R-J1-PDC complex spheroid viability
Assay: Anticancer human tumor 885724-159-R-J1-PDC patient-derived pancreatic adenocarcinoma cell line growth inhibition [POLQ]
Conditions: for IC50: curve of first compound; for viability, T/C: stronger effect = lower value; active means viability on the fitted dose curve at most 10% of control; inactive means the rest
Procedure, shortened: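 Patient-derived tumour cells were co-cultured with HUVEC and mesenchymal stem cells as multicellular spheroids at 37 °C. They were treated with POLQ inhibitors (novobiocin, ART-558, RP6685) alone or combined with other agents. Top concentrations were at or near clinical Cmax (otherwise 10 microM; SN-38 at 1 microM), decreasing in half-log steps.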
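Further: spheroids exposed to compounds for 7 days.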

CC(=O)O[C@H]1C(=O)[C@@]2(C)[C@H]([C@H](OC(=O)c3ccccc3)[C@]3(O)C[C@H](OC(=O)[C@H](O)[C@@H](NC(=O)c4ccccc4)c4ccccc4)C(C)=C1C3(C)C)[C@]1(OC(C)=O)CO[C@@H]1C[C@@H]2O + Cc1cccc(N(C)C(=O)C2C(O)CCN2c2nc(C)cc(C(F)(F)F)c2C#N)c1
inactive: viability, T/C (second compound 0.0316 µM, first compound 0.00949 µM) 76.7% | viability, T/C (second compound 0.0316 µM, first compound 0.03 µM) 57.6% | viability, T/C (second compound 0.0316 µM, first compound 0.0949 µM) 58.8% | viability, T/C (second compound 0.0316 µM, first compound 0.3 µM) 62.2% | viability, T/C (second compound 0.0316 µM, first compound 0.949 µM) 70.6% | viability, T/C (second compound 0.0316 µM, first compound 3 µM) 61% | viability, T/C (second compound 0.1 µM, first compound 0.00949 µM) 75.1% | viability, T/C (second compound 0.1 µM, first compound 0.03 µM) 59.4% | viability, T/C (second compound 0.1 µM, first compound 0.0949 µM) 59.8% | viability, T/C (second compound 0.1 µM, first compound 0.3 µM) 70.4% | viability, T/C (second compound 0.1 µM, first compound 0.949 µM) 67.3% | viability, T/C (second compound 0.1 µM, first compound 3 µM) 70.6% | viability, T/C (second compound 0.316 µM, first compound 0.00949 µM) 67.6% | viability, T/C (second compound 0.316 µM, first compound 0.03 µM) 59.6% | viability, T/C (second compound 0.316 µM, first compound 0.0949 µM) 63% | viability, T/C (second compound 0.316 µM, first compound 0.3 µM) 63.6% | viability, T/C (second compound 0.316 µM, first compound 0.949 µM) 75.4% | viability, T/C (second compound 0.316 µM, first compound 3 µM) 69.7% | viability, T/C (second compound 1 µM, first compound 0.00949 µM) 68.2% | viability, T/C (second compound 1 µM, first compound 0.03 µM) 66.3% | viability, T/C (second compound 1 µM, first compound 0.0949 µM) 62.8% | viability, T/C (second compound 1 µM, first compound 0.3 µM) 67.2% | viability, T/C (second compound 1 µM, first compound 0.949 µM) 69.1% | viability, T/C (second compound 1 µM, first compound 3 µM) 68.9% | viability, T/C (second compound 3.16 µM, first compound 0.00949 µM) 62.5% | viability, T/C (second compound 3.16 µM, first compound 0.03 µM) 55.1% | viability, T/C (second compound 3.16 µM, first compound 0.0949 µM) 59.4% | viability, T/C (second compound 3.16 µM, first compound 0.3 µM) 63.8% | viability, T/C (second compound 3.16 µM, first compound 0.949 µM) 67.6% | viability, T/C (second compound 3.16 µM, first compound 3 µM) 64.5% | viability, T/C (second compound 10 µM, first compound 0.00949 µM) 59.1% | viability, T/C (second compound 10 µM, first compound 0.03 µM) 61.1% | viability, T/C (second compound 10 µM, first compound 0.0949 µM) 61% | viability, T/C (second compound 10 µM, first compound 0.3 µM) 66% | viability, T/C (second compound 10 µM, first compound 0.949 µM) 62.7% | viability, T/C (second compound 10 µM, first compound 3 µM) 72%
> 3 µM: IC50 (second compound 0.0316 µM) | IC50 (second compound 0.1 µM) | IC50 (second compound 0.316 µM) | IC50 (second compound 1 µM) | IC50 (second compound 3.16 µM) | IC50 (second compound 10 µM)

COc1cc(C2c3cc4c(cc3C(OC3OC5COC(C)OC5C(O)C3O)C3COC(=O)C23)OCO4)cc(OC)c1O (centres undefined) + Cc1cccc(N(C)C(=O)C2C(O)CCN2c2nc(C)cc(C(F)(F)F)c2C#N)c1
6.05 µM: IC50 (second compound 10 µM)
8.12 µM: IC50 (second compound 0.0316 µM)
9.09 µM: IC50 (second compound 0.316 µM)
inactive: viability, T/C (second compound 0.0316 µM, first compound 0.0316 µM) 101% | viability, T/C (second compound 0.0316 µM, first compound 0.1 µM) 90.2% | viability, T/C (second compound 0.0316 µM, first compound 0.316 µM) 80.7% | viability, T/C (second compound 0.0316 µM, first compound 1 µM) 75% | viability, T/C (second compound 0.0316 µM, first compound 3.16 µM) 57.7% | viability, T/C (second compound 0.0316 µM, first compound 10 µM) 48.1% | viability, T/C (second compound 0.1 µM, first compound 0.0316 µM) 94.7% | viability, T/C (second compound 0.1 µM, first compound 0.1 µM) 86.1% | viability, T/C (second compound 0.1 µM, first compound 0.316 µM) 79.5% | viability, T/C (second compound 0.1 µM, first compound 1 µM) 73.4% | viability, T/C (second compound 0.1 µM, first compound 3.16 µM) 63.2% | viability, T/C (second compound 0.1 µM, first compound 10 µM) 47.5% | viability, T/C (second compound 0.316 µM, first compound 0.0316 µM) 95.4% | viability, T/C (second compound 0.316 µM, first compound 0.1 µM) 99.8% | viability, T/C (second compound 0.316 µM, first compound 0.316 µM) 74.6% | viability, T/C (second compound 0.316 µM, first compound 1 µM) 71% | viability, T/C (second compound 0.316 µM, first compound 3.16 µM) 58.2% | viability, T/C (second compound 0.316 µM, first compound 10 µM) 48.4% | viability, T/C (second compound 1 µM, first compound 0.0316 µM) 100% | viability, T/C (second compound 1 µM, first compound 0.1 µM) 79.3% | viability, T/C (second compound 1 µM, first compound 0.316 µM) 74% | viability, T/C (second compound 1 µM, first compound 1 µM) 71% | viability, T/C (second compound 1 µM, first compound 3.16 µM) 55.7% | viability, T/C (second compound 1 µM, first compound 10 µM) 45.4% | viability, T/C (second compound 3.16 µM, first compound 0.0316 µM) 98.1% | viability, T/C (second compound 3.16 µM, first compound 0.1 µM) 96.9% | viability, T/C (second compound 3.16 µM, first compound 0.316 µM) 76.2% | viability, T/C (second compound 3.16 µM, first compound 1 µM) 67.3% | viability, T/C (second compound 3.16 µM, first compound 3.16 µM) 58.6% | viability, T/C (second compound 3.16 µM, first compound 10 µM) 45.9% | viability, T/C (second compound 10 µM, first compound 0.0316 µM) 95.9% | viability, T/C (second compound 10 µM, first compound 0.1 µM) 80% | viability, T/C (second compound 10 µM, first compound 0.316 µM) 74.9% | viability, T/C (second compound 10 µM, first compound 1 µM) 62.6% | viability, T/C (second compound 10 µM, first compound 3.16 µM) 58.2% | viability, T/C (second compound 10 µM, first compound 10 µM) 44.2%
9.11 µM: IC50 (second compound 0.1 µM)
6.86 µM: IC50 (second compound 1 µM) | IC50 (second compound 3.16 µM)
